Source: publication PMC7316160 (Drug testing and analysis, 2018)
Values joined by “and” are separate entries in the source; they are usually repeats but may differ in a detail not shown here. Equal values may be shown once. Read-outs that look alike come from different tables or passages of the source.

What was measured:
[1] = LC-MS/MS quantification in blood/serum of human intoxication cases; assay type: in vivo
[2] = molecular target: T1, dopamine transporter (DAT) (Rattus norvegicus, UniProt P23977); assay: Inhibition of [^3H]dopamine uptake at DAT in rat brain synaptosomes; assay type: biochemical; conditions: for DAT/SERT ratio (uptake inhibition): [DAT IC50]^−1/[SERT IC50]^−1, higher value indicates greater DAT selectivity
T1 sequence (P23977 whole entry): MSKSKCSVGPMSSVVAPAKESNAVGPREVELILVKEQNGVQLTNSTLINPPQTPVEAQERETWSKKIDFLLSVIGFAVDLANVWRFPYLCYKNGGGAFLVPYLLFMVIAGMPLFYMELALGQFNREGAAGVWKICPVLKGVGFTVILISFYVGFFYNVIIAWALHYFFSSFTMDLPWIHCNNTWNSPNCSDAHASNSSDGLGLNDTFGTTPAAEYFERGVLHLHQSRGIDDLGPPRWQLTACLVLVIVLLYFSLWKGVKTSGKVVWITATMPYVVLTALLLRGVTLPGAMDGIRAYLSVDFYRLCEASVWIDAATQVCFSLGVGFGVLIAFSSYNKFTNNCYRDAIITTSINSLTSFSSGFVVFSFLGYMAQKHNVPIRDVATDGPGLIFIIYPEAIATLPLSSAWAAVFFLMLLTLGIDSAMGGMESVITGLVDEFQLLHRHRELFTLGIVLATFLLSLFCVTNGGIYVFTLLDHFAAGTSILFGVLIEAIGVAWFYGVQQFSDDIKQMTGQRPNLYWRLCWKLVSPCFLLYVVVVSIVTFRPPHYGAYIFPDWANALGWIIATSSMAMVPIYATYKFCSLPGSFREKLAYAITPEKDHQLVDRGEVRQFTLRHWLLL

[3] = molecular target: T2, norepinephrine transporter (NET) (Rattus norvegicus, UniProt Q63380); assay: Release of [^3H]MPP+ via NET from rat brain synaptosomes; assay type: biochemical; conditions: for Release of [^3H]MPP+ via NET EC50: rat brain synaptosomes, mean ± SD, n=3
T2 sequence (Q63380 1-617): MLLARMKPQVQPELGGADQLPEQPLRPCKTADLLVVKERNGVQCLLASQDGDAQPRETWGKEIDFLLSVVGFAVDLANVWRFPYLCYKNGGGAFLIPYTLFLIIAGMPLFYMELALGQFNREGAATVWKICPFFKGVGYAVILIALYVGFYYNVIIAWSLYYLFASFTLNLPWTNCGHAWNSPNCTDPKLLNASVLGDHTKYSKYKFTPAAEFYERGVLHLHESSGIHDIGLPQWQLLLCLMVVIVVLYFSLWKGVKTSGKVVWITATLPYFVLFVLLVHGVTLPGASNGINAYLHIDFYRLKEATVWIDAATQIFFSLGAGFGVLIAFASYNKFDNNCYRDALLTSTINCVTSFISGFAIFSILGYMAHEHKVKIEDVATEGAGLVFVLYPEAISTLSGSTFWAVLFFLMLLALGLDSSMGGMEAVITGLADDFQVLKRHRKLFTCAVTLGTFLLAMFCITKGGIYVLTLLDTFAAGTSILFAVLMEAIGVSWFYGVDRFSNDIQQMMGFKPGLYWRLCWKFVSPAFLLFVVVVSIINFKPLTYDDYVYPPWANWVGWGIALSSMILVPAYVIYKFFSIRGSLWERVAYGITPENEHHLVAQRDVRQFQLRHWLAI

[4] = molecular target: T2, norepinephrine transporter (NET); assay: Inhibition of [^3H]norepinephrine uptake at NET in rat brain synaptosomes; assay type: biochemical; conditions: approximate value
5-HT transporter (SERT) = 5-HT transporter (SERT) (Rattus norvegicus, UniProt P31652); assay: Release of [^3H]5-HT via SERT from rat brain synaptosomes; assay type: biochemical; conditions: for Emax: read-out: Release of [^3H]5-HT via SERT %Emax; for Release of [^3H]5-HT via SERT EC50: rat brain synaptosomes, mean ± SD, n=3
5-HT transporter (SERT), sequence (P31652 whole entry): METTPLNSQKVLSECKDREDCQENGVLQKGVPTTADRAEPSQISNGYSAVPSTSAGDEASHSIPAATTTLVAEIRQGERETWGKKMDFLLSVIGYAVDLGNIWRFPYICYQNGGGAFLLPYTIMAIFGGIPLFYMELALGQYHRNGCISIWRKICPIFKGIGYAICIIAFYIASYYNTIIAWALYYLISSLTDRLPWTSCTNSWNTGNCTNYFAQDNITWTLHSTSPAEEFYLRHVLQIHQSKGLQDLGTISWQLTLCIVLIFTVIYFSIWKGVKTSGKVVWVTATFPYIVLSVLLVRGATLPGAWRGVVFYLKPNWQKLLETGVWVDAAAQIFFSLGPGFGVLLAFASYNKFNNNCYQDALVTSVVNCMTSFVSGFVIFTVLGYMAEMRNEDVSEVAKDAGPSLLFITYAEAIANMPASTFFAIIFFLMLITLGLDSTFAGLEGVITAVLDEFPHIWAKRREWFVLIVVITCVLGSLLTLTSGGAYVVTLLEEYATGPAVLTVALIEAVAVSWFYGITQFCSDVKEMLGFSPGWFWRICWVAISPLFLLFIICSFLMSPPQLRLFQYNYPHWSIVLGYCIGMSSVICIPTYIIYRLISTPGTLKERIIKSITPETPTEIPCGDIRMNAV

[5] = molecular target: T1, dopamine transporter (DAT); assay: Release of [^3H]MPP+ via DAT from rat brain synaptosomes; assay type: biochemical; conditions: for Release of [^3H]MPP+ via DAT EC50: rat brain synaptosomes, mean ± SD, n=3
[6] = assay type: in vivo, human; conditions: for Potassium: reference 3.3 - 5.1; for aspartame aminotransferase: reference 10 - 40; for alanine aminotransferase: reference 12 - 78; for BUN: reference 15 - 39; for Sodium: reference 136 - 145; for pH: reference 7.35 - 7.45; for HCO3: reference 22 - 26; for pCO2: reference 35 - 45; for Glucose: reference 70 - 100; for pO2: reference 80 - 100; for serum creatinine: reference Male 0.8 - 1.3; for Hb: reference Male 13.2 - 18.0; for Hematocrit: reference Male 39.0 - 51.0; for creatine kinase: reference Male 39 - 308; for base excess: reference −2 - +2
[7] = Stability in whole blood on storage; assay type: physicochemical, human; conditions: for long-term stability, variation of initial concentration: 90 days; for Stability (% difference): whole blood, n=3
[8] = Case 4, co-exposure alcohol, MDMA and N-ethylnorpentylone
[9] = Inhibition of [^3H]dopamine Uptake at DAT IC50, rat brain synaptosomes (caudate), mean ± SD, n=3

For CNC(C)Cc1ccc2c(c1)OCO2 (stereo not drawn) [MDMA, 3,4-methylenedioxymethamphetamine], the serum concentration [1, 8] was 54 ng/mL.

For CNC(C)C(=O)c1ccc2c(c1)OCO2 (stereo not drawn) [Methylone, 3,4-methylenedioxy-N-methylcathinone], the IC50 [2, 9] was 1390 ± 81 nM, the “DAT/SERT ratio (uptake inhibition)” value [2] was 0.83 and 0.8 and the IC50 ([2]; uptake inhibition at DAT IC50, rat brain synaptosomes, approximate value) was ~1000 nM. It also gave an EC50 [3] of 81 ± 8 nM, an Emax ([3]; read-out: Release of [^3H]MPP+ via NET %Emax) of 94% and an IC50 [4] of ~1000 nM. The EC50 (5-HT transporter (SERT)) was 342 ± 20 nM, the Emax (5-HT transporter (SERT)) was 99% and the EC50 [5] was 178 ± 17 nM. The “DAT/SERT ratio (release)” value ([5]; [DAT EC50]^−1/[SERT EC50]^−1, higher value indicates greater DAT selectivity) was 1.9 and the Emax ([5]; read-out: Release of [^3H]MPP+ via DAT %Emax) was 96%.

For CCCC(NCC)C(=O)c1ccc2c(c1)OCO2 (stereo not drawn) [N-ethylnorpentylone, 1-(1,3-benzodioxol-5-yl)-2-(ethylamino)pentan-1-one], the “post mortem whole blood concentration” value ([1]; Case 1, fatal, only psychoactive analyte detected) was 170 ng/mL, the serum concentration ([1]; Case 2, recovered by 12 h) was 7 ng/mL and the serum concentration [1, 8] was 19 ng/mL. For the same molecule, the serum concentration ([1]; Case 5, coma, cerebrovascular hemorrhage) was 149 ng/mL, the serum concentration ([1]; Case 6, psychosis) was 61 ng/mL and the IC50 [2, 9] was 37 ± 2 nM. For the same molecule, the “DAT/SERT ratio (uptake inhibition)” value [2] was > 10, the “Release of [^3H]MPP+ via NET EC50” value [3] was “unable to evoke release” and the “Release of [^3H]MPP+ via NET EC50” value ([3]; listed as N-EthylNorpentylone) was “inactive”. For the same molecule, the “Release of [^3H]MPP+ via NET EC50” value ([3]; listed as N-Ethylnorpentylone) was “no transporter releasing activity”, the “symptoms of intoxicated subjects” value ([6]; 6 human cases) was “palpitations, tachycardia, agitation, aggression, hallucinations, coma and, in one case, death” and the “heart rate (tachycardia)” value ([6]; Case 2, at ED) was 176 bpm. It also gave a Potassium ([6]; Case 3) of 3.6 mEq/L, an aspartame aminotransferase ([6]; Case 3) of 93 U/L and an alanine aminotransferase ([6]; Case 3) of 35 U/L. The BUN ([6]; Case 3) was 14 mg/dL, the Sodium ([6]; Case 3) was 140 mEq/L and the phosphatase alkaline ([6]; Case 3, reference Adult 50 - 136) was 53 U/L. The blood pressure ([6]; Case 4, described as normal) was 123/89, the Potassium ([6]; Case 4) was 3.4 mEq/L and the “creatine kinase MB isoenzyme” value ([6]; Case 4, reference 7 - 25) was 21 U/L. The pH ([6]; Case 4) was 7.46, the aspartame aminotransferase ([6]; Case 4) was 40 U/L and the alanine aminotransferase ([6]; Case 4) was 25 U/L. The BUN ([6]; Case 4) was 14 mg/dL, the HCO3 ([6]; Case 4) was 20.5 mmol/L and the pCO2 ([6]; Case 4) was 29.4 mmHg. It also gave a Glucose ([6]; Case 4) of 104 mg/dL, a pO2 ([6]; Case 4) of 72.5 mmHg and a Sodium ([6]; Case 4) of 137 mEq/L. For the same molecule, the serum creatinine ([6]; Case 4) was 0.9 mg/dL, the Hb ([6]; Case 4) was 15.5 g/dL and the Hematocrit ([6]; Case 4) was 43.0%. For the same molecule, the creatine kinase ([6]; Case 4) was 605 U/L, the base excess ([6]; Case 4) was -1.6 mmol/L and the “Glasgow score (neurological depression)” value ([6]; Case 5) was 5. It also gave a Lactate ([6]; Case 5, reference 0.5 - 1.6) of 11.0 mmol/L, a Magnesium ([6]; Case 5, reference 1.6 - 2.4) of 1.6 mg/dL and a Potassium ([6]; Case 5) of 3.7 mEq/L. It also gave a pH ([6]; Case 5) of 7.41, a BUN ([6]; Case 5) of 28 mg/dL and an HCO3 ([6]; Case 5) of 19 mmol/L. For the same molecule, the pCO2 ([6]; Case 5) was 31 mmHg, the pO2 ([6]; Case 5) was 86 mmHg and the Sodium ([6]; Case 5) was 137 mEq/L. The serum creatinine ([6]; Case 5) was 0.7 mg/dL, the Hb ([6]; Case 5) was 13.0 g/dL and the Hematocrit ([6]; Case 5) was 43.0%. For the same molecule, the creatine kinase ([6]; Case 5) was 1,260 U/L, the base excess ([6]; Case 5) was -3.8 mmol/L and the Potassium ([6]; Case 6) was 3.8 mEq/L. The aspartame aminotransferase ([6]; Case 6) was 24 U/L, the alanine aminotransferase ([6]; Case 6) was 27 U/L and the BUN ([6]; Case 6) was 31 mg/dL. The Glucose ([6]; Case 6) was 101 mg/dL, the Sodium ([6]; Case 6) was 137 mEq/L and the serum creatinine ([6]; Case 6) was 0.7 mg/dL. The Hb ([6]; Case 6) was 13.0 g/dL, the Hematocrit ([6]; Case 6) was 39.9% and the creatine kinase ([6]; Case 6) was 713 U/L. The “Release of [^3H]5-HT via SERT EC50” value (5-HT transporter (SERT)) was “unable to evoke release”, the “Release of [^3H]5-HT via SERT EC50” value (5-HT transporter (SERT); listed as N-EthylNorpentylone) was “inactive” and the “Release of [^3H]5-HT via SERT EC50” value (5-HT transporter (SERT); listed as N-Ethylnorpentylone) was “no transporter releasing activity”. For the same molecule, the “long-term stability, variation of initial concentration” value (“long-term stability, variation” below) ([7]; fortified whole blood, both QC concentrations, 4 °C) was −3.5%, the “long-term stability, variation” value ([7]; fortified whole blood, both QC concentrations, −20 °C) was “+6.5%” and the “long-term stability, variation” value ([7]; post mortem blood sample, 4 °C) was −19.7%. For the same molecule, the “long-term stability, variation” value ([7]; post mortem blood sample, −20 °C) was −5.5%, the “Stability (% difference)” value ([7]; High QC (400 ng/mL), 3 freeze-thaw cycles) was −3.0% and the “Stability (% difference)” value ([7]; High QC (400 ng/mL), 4 °C, 24h) was 7.1%. The “Stability (% difference)” value ([7]; High QC (400 ng/mL), 4 °C, 72h) was 5.9%, the “Stability (% difference)” value ([7]; High QC (400 ng/mL), −20 °C, 24h) was −3.3% and the “Stability (% difference)” value ([7]; High QC (400 ng/mL), −20 °C, 72h) was −2.9%. For the same molecule, the “Stability (% difference)” value ([7]; Low QC (15 ng/mL), 3 freeze-thaw cycles) was −11.8%, the “Stability (% difference)” value ([7]; Low QC (15 ng/mL), 4 °C, 24h) was −2.4% and the “Stability (% difference)” value ([7]; Low QC (15 ng/mL), 4 °C, 72h) was −4.9%. For the same molecule, the “Stability (% difference)” value ([7]; Low QC (15 ng/mL), −20 °C, 24h) was −1.8%, the “Stability (% difference)” value ([7]; Low QC (15 ng/mL), −20 °C, 72h) was −12.6% and the “Release of [^3H]MPP+ via DAT EC50” value [5] was “unable to evoke release”. The “Release of [^3H]MPP+ via DAT EC50” value ([5]; listed as N-EthylNorpentylone) was “inactive” and the “Release of [^3H]MPP+ via DAT EC50” value ([5]; listed as N-Ethylnorpentylone) was “no transporter releasing activity”.

With CCCC(NC)C(=O)c1ccc2c(c1)OCO2 (stereo not drawn) [Pentylone, 1-(1,3-benzodioxol-5-yl)-2-(methylamino)pentan-1-one] the IC50 [2, 9] was 154 ± 11 nM, the “DAT/SERT ratio (uptake inhibition)” value [2] was 7.8 and the “Release of [^3H]MPP+ via NET EC50” value [3] was “Inactive”. The EC50 (5-HT transporter (SERT)) was 476 ± 98 nM, the Emax (5-HT transporter (SERT)) was 54% and the “Release of [^3H]MPP+ via DAT EC50” value [5] was “inactive”.

In the case of CCO [alcohol], the serum concentration ([1]; Case 4) is reported as 800000 ng/mL.
